Results: patent publication US20240083910A1, “AMIDO-SUBSTITUTED PYRIDYL COMPOUNDS AND METHODS OF USE THEREOF FOR THE TREATMENT OF HERPESVIRUSES” (Merck Sharp & Dohme LLC, priority 2020, published 2024)
Read-outs that look alike come from different tables or passages of the source.

Key:
[1] = system: VZV; test: Viral qPCR assay, VZV; format: cell-based, varicella zoster virus; conditions: MeWo or MRC5 cells, 0.04-0.1 pfu/cell, growth medium, viral genome copies by qPCR
Procedure: (§1) MRC5 cells, Vero cells, and MeWo cells were obtained from ATCC, and were maintained at 37° C./5% CO2/90% relative humidity in Minimal Essential Medium with 10% fetal bovine serum, […] L-glutamine, 100 units/ml penicillin and 100 ug/ml streptomycin. Assay plates were prepared by dispensing compounds dissolved in DMSO into wells of 384 well collagen-coated plates using an ECHO acoustic dispenser. Each compound was tested in a 10-point, serial 3-fold dilution. Controls included uninfected cells and infected cells treated only with DMSO. Assays were initiated by mixing selected cells, in suspension, with virus, and dispensing 50 μl/well infected cells to pre-plated compounds. Plates were incubated at 37° C./5% CO2/90% relative humidity for ˜72 hrs to permit genomic replication, and infected cells were lysed by the addition of an equal volume of lysis buffer (10 mM Tris-HCl, pH8, 50 mM KCl, 2 mM MgCl2, 0.45% NP-40, 0.45% Tween-20, and 100 μg/ml proteinase K). An aliquot of the lysate was transferred to a 384-well PCR plate and incubated at 56° C. for 1 hour and then at 95° C. for 10 min. Levels of a viral gene and of the cellular control, PPIA (Thermo Fisher Assay ID=Hs04194521_s1), were measured in separate 10 ul qPCR assays using TaqMan® Gene Expression Master Mix (Applied Biosystems), and an 7900HT Fast Real-Time PCR System with 384-Well Block Module. 7-point, serial 10-fold dilutions of a plasmid standard were run on each plate to generate a standard curve, and genome copies numbers were calculated by plotting experimental Ct onto linear regression of the standard curve. Viral genome copy numbers were normalized by cellular control copy number, and compound effects were normalized to the window defined by the controls. Calculated % effects were fit using a 4-parameter algorithm, and EC50 was reported.
(§2) MRC5 cells, Vero cells, and MeWo cells were obtained from ATCC, and were maintained at 37° C./5% CO2/90% relative humidity in Minimal Essential Medium with 10% fetal bovine serum, […] L-glutamine, 100 units/ml penicillin and 100 ug/ml streptomycin. Assay plates were prepared by dispensing compounds dissolved in DMSO into wells of 384 well collagen-coated plates using an ECHO acoustic dispenser. Each compound was tested in a 10-point, serial 3-fold dilution. Controls included uninfected cells and infected cells treated only with DMSO. Assays were initiated by mixing selected cells, in suspension, with virus, and dispensing 50 μl/well infected cells to pre-plated compounds. Plates were incubated at 37° C./5% CO2/90% relative humidity for ˜72 hrs to permit genomic replication, and infected cells were lysed by the addition of an equal volume of lysis buffer (10 mM Tris-HCl, pH 8, 50 mM KCl, 2 mM MgC12, 0.45% NP-40, 0.45% Tween-20, and 100 μg/ml proteinase K). An aliquot of the lysate was transferred to a 384-well PCR plate and incubated at 56° C. for 1 hour and then at 95° C. for 10 min. Levels of a viral gene were measured in 10 ul qPCR assays using TaqMan® Gene Expression Master Mix (Applied Biosystems), and an 7900HT Fast Real-Time PCR System with 384-Well Block Module. 7-point, serial 10-fold dilutions of a plasmid standard were run on each plate to generate a standard curve, and genome copies numbers were calculated by plotting experimental Ct onto linear regression of the standard curve. Compound effects on viral genome copy number were normalized to the window defined by the controls. Calculated % effects were fit using a 4-parameter algorithm, and ECso was reported.
VZV: Strain Street was maintained as an infected cell stock in MRC-5 cells. It was assayed in MeWo or MRC5 cells and was used at 0.04-0.1 pfu/cell. The assays were performed in growth medium. Primer-probe set was Thermo Fisher Assay ID=AIPAEXQ.

[2] = system: HSV-1 Strain F; test: Viral qPCR assay, HSV-1; format: cell-based, Herpes Simplex Virus type 1; conditions: Vero or MRC5 cells, 0.0005-0.004 pfu/cell, growth medium, viral genome copies by qPCR, read-out: HSV1 Cell (EC50)
Procedure: as §1, §2
HSV-1: Strain F […] was assayed in Vero or MRC5 cells and was used at 0.0005-0.004 pfu/cell in growth medium. Primer-probe set was Thermo Fisher Assay ID=AIBJZIB

[3] = molecular target: T1, Human cytomegalovirus DNA polymerase (Human cytomegalovirus, UniProt P08546); test: CMV polymerase assay (AlphaLISA); format: biochemical; conditions: HCMV polymerase 0.2 nM; 30 min pre-incubation; 60 min at 37° C.; read-out: CMV (IC50)
T1 construct: made in house; host or cells: SF21 insect cells (baculovirus vector)
Procedure: Human cytomegalovirus and varicella zoster virus DNA polymerases were expressed via baculovirus vector in SF21 cells and purified. Heterodimeric nucleic acid substrate used in the herpesvirus polymerase reactions was generated by annealing a 59-mer template to a 17-mer digoxigenin-labeled primer. Polymerase (HCMV final concentration of 0.2 nM; VZV final concentration of 0.4 nM) was combined with an inhibitor compound or DMSO in assay buffer (10 mM HEPES, pH 7.5, 25 mM KCl, 25 mM NaCl, 5 mM MgCl2, 5% glycerol, 0.67 mg/ml bovine serum albumin, and 1 mM tris(2-carboxyethyl)phosphine), and this mixture was pre-incubated for 30 minutes at room temperature in 384-well microtiter plates. The polymerization reaction was initiated by the addition of template/primer substrate (final concentration: 1.6 nM), and dNTPs (final concentration: 24 nM dCTP, 24 nMdGTP, 16 nM dATP, 16 nM dTTP, and 0.8 nM biotin-dUTP). After 60 min incubation at 37° C., reactions were terminated with quench buffer (25 mM HEPES pH 7.5, 100 mM NaCl, 0.25% Tween-20, 12 mM EDTA, and 1 mg/ml bovine serum albumin). Incorporation of biotinylated UTP was detected with 2.5-5 ug/ml anti-DIG AlphaLISA acceptor beads and 5-10 ug/ml streptavidin AlphaLISA donor beads (PerkinElmer). Compound effects were normalized to the window defined by the controls (DMSO only and pre-quenched wells) and were fit using a 4-parameter algorithm to report an IC50.

[4] = system: HCMV Strain AD169; test: Viral qPCR assay, HCMV; format: cell-based, Human cytomegalovirus; conditions: MRC-5 cells, 0.05-0.1 pfu/cell, growth media or 50% fetal bovine serum, viral genome copies by qPCR, read-out: CMV Cell (EC50)
Procedure: as §1, §2
HCMV: Strain AD169 Street was assayed in MRC-5 cells and was used at 0.05-0.1 pfu/cell. The assays were performed in either growth media or in the same media with 50% fetal bovine serum. Primer-probe set was Thermo Fisher Assay ID=AIFATFK.

[5] = Human betaherpesvirus 5, AD169, MRC5, 72 h

T1 sequence (P08546 whole entry): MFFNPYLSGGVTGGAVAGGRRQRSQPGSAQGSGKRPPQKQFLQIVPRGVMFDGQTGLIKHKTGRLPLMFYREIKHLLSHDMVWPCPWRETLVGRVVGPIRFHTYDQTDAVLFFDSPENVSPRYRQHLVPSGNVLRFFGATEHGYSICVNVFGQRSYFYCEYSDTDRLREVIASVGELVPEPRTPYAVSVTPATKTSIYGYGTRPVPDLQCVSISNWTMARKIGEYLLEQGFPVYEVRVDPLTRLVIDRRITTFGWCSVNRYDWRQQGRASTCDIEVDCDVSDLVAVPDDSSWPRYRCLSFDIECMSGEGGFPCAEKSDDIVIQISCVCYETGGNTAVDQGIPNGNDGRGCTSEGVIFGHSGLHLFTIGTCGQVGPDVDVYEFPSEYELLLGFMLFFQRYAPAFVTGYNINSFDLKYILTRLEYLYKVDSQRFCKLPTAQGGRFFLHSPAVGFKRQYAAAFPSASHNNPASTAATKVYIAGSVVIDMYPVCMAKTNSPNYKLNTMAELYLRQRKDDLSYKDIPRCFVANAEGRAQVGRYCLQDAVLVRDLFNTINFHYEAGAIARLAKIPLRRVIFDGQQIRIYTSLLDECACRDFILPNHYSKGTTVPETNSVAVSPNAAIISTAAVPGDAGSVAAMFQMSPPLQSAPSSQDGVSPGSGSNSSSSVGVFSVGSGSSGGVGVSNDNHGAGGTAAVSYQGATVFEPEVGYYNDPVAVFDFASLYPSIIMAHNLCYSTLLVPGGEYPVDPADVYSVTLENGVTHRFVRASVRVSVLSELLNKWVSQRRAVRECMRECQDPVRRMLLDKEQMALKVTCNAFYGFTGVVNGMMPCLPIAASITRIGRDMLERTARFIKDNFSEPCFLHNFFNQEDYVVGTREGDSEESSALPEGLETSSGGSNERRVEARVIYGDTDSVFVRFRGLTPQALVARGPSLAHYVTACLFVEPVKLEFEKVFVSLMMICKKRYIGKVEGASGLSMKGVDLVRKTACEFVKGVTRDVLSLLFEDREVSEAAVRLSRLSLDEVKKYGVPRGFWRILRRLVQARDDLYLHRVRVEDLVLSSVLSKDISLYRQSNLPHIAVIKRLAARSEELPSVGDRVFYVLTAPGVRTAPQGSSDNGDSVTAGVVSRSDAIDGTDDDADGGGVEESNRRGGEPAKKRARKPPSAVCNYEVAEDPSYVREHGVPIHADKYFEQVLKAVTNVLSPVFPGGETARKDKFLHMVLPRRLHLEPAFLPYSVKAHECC

Row | IC50 [3] [nM] | SMILES | EC50 ([1]; ~72 hrs) [nM] | EC50 ([2]; Human alphaherpesvirus 1, 72 h) [nM] | EC50 [4, 5] [nM] | EC50 ([1]; Human alphaherpesvirus 3, 72 h) [nM] | EC50 ([2]; ~72 hrs) [nM] | EC50 ([4]; ~72 hrs) [nM]
1 | 22.9 | COc1nc(N2CCC(C(C)(C)O)C2)c(O[C@H]2CCN3C(=O)OC[C@@H]3C2)cc1C(=O)NCc1ccc(Cl)cc1 (stereo partly shown) [Compound 67] | 2270 | 568 | 368 |  |  | 
2 | 4.67 | O=C1CC[C@@H](COc2nc(-c3cnn(C(F)F)c3)c(O[C@H]3CCN4C(=O)OC[C@@H]4C3)cc2C(=O)NCc2ccc(Cl)cc2)N1 [Compound 99] |  | 493 | 282 | 1310 |  | 
3 | 6.77 | COCCn1cc(-c2nc(OC)c(C(=O)NCc3ccc(Cl)cc3)cc2O[C@H]2CCN3C(=O)OC[C@@H]3C2)cn1 [Compound 25] |  | 146 | 159 | 186 |  | 
4 | 17 | COc1nc(-c2cnc3[nH]ccc3c2)c(O[C@H]2CCN3C(=O)OC[C@@H]3C2)cc1C(=O)NCc1ccc(Cl)cc1 [Compound 41] |  | 494 | 606 | 418 |  | 
5 | 81.5 | COc1nc(-c2ccc3[nH]ccc3c2)c(O[C@H]2CCN3C(=O)OC[C@@H]3C2)cc1C(=O)NCc1ccc(Cl)cc1 [Compound 39] |  | 658 | 886 | 1360 |  | 
6 | 2.72 | CCN(CC)CCOc1nc(-c2cnn(C(F)F)c2)c(O[C@H]2CCN3C(=O)OC[C@@H]3C2)cc1C(=O)NCc1ccc(Cl)cc1 [Compound 96] |  | 148 | 75.9 | 400 |  | 
7 | 88.6 | COc1nc(CC(C)(C)N)c(O[C@H]2CCN3C(=O)OC[C@@H]3C2)cc1C(=O)NCc1ccc(Cl)cc1 [Compound 81] |  | 2880 | 558 | 3650 |  | 
8 | 1.46 | CN(C)CCCOc1nc(-c2cnn(C(F)F)c2)c(O[C@H]2CCN3C(=O)OC[C@@H]3C2)cc1C(=O)NCc1ccc(Cl)cc1 [Compound 95] |  | 141 | 151 | 463 |  | 
9 | 5.8 | COc1nc(-c2cc3ccccc3[nH]2)c(O[C@H]2CCN3C(=O)OC[C@@H]3C2)cc1C(=O)NCc1ccc(Cl)cc1 [Compound 26] |  | 174 | 372 | 208 |  | 
10 | 14.5 | COc1nc(-c2cnn(C(F)F)c2)c(O[C@@H]2CCN(C(C)=O)[C@H](C)C2)cc1C(=O)NCc1ccc(Cl)cc1 [Compound 102] |  | 601 | 344 | 887 |  | 
11 | 5.15 | CN1C(=O)NC[C@@H]1COc1nc(-c2cnn(C(F)F)c2)c(O[C@H]2CCN3C(=O)OC[C@@H]3C2)cc1C(=O)NCc1ccc(Cl)cc1 [Compound 94] |  | 773 | 520 | 2180 |  | 
12 | 19.2 | COc1nc(-c2ccc(C)s2)c(O[C@H]2CCN3C(=O)OC[C@@H]3C2)cc1C(=O)NCc1ccc(Cl)cc1 [Compound 14] |  | 824 | 1020 | 2570 |  | 
13 | 9.27 | COc1nc(-c2cccs2)c(O[C@H]2CCN3C(=O)OC[C@@H]3C2)cc1C(=O)NCc1ccc(Cl)cc1 [Compound 12] |  | 187 | 313 | 235 |  | 
14 | 14.1 | CN1CCN(CCCOc2nc(-c3cnn(C(F)F)c3)c(O[C@H]3CCN4C(=O)OC[C@@H]4C3)cc2C(=O)NCc2ccc(Cl)cc2)CC1 [Compound 98] |  | 290 | 115 | 617 |  | 
15 | 8.26 | COc1csc(-c2nc(OC)c(C(=O)NCc3ccc(Cl)cc3)cc2O[C@H]2CCN3C(=O)OC[C@@H]3C2)c1 [Compound 34] |  | 260 | 421 | 1920 |  | 
16 | 69.3 | COc1nc(-c2ncco2)c(O[C@H]2CCN3C(=O)OC[C@@H]3C2)cc1C(=O)N[C@@H](C)c1ccc(Cl)cc1 [Compound 64] |  | 597 | 911 | 1560 |  | 
17 | 28.7 | COc1nc(N2CCC(C(C)(C)O)C2)c(O[C@H]2CCN3C(=O)OC[C@@H]3C2)cc1C(=O)NCc1ccc(Cl)cc1 (stereo partly shown) [Compound 68] | 661 |  |  |  | 654 | 265
18 | 22.3 | COc1ccc(-c2nc(OC)c(C(=O)NCc3ccc(Cl)cc3)cc2O[C@H]2CCN3C(=O)OC[C@@H]3C2)cn1 [Compound 43] |  | 169 | 422 | 298 |  | 
19 | 3.17 | NC(=O)CCOc1nc(-c2cnn(C(F)F)c2)c(O[C@H]2CCN3C(=O)OC[C@@H]3C2)cc1C(=O)NCc1ccc(Cl)cc1 [Compound 100] |  | 213 | 47.4 | 451 |  | 
20 | 9.83 | CC1(COc2nc(-c3cnn(C(F)F)c3)c(O[C@H]3CCN4C(=O)OC[C@@H]4C3)cc2C(=O)NCc2ccc(Cl)cc2)COC1 [Compound 90] |  | 180 | 131 | 286 |  | 
21 | 25.3 | COc1nc(-c2cc3ccccc3o2)c(O[C@H]2CCN3C(=O)OC[C@@H]3C2)cc1C(=O)NCc1ccc(Cl)cc1 [Compound 20] |  | 1440 | 587 | 1870 |  | 

Row | SMILES | IC50 [3] [nM] | EC50 ([1]; ~72 hrs) [nM] | EC50 ([2]; Human alphaherpesvirus 1, 72 h) [nM] | EC50 [4, 5] [nM] | EC50 ([1]; Human alphaherpesvirus 3, 72 h) [nM] | EC50 ([2]; ~72 hrs) [nM] | EC50 ([4]; ~72 hrs) [nM]
22 | COc1nc(C2CC2O)c(O[C@H]2CCN3C(=O)OC[C@@H]3C2)cc1C(=O)NCc1ccc(Cl)cc1 (single isomer, unassigned) [Compound 79] | 28.7 | 463 |  |  |  | 518 | 337
